Data: ChEMBL document CHEMBL5352401, “Novel cudraisoflavone J derivatives as potent neuroprotective agents for the treatment of Parkinson's disease via the activation of Nrf2/HO-1 signaling” (Eur J Med Chem, 2022)
One block for each compound: values may come before it. Active and inactive are the calls of the source. No cut-off for these calls is given here.

Columns and labels:
PC-12 [1] = assay: Neuroprotective activity against 6-OHDA-induced cytotoxicity in rat PC-12 cells at 0.1 uM for 4 hrs followed by exposure to 6-OHDA measured after 24 hrs by MTT assay; format: functional, cell-based; conditions: time 28.0 hrs
PC-12 [2] = assay: Cytotoxicity in rat PC-12 cells assessed as cell viability measured upto 30 uM for 24 hrs by MTT assay relative to control; format: functional; conditions: up to 30 µM
PC-12 [3] = assay: Cytotoxicity in rat PC-12 cells assessed as cell viability measured at 10 to 30 uM for 24 hrs by MTT assay; format: functional, cell-based; conditions: dose 10-30 µM
PC-12 [4] = assay: Neuroprotective activity against 6-OHDA-induced cytotoxicity in rat PC-12 cells at 10 to 30 uM for 4 hrs followed by exposure to 6-OHDA measured after 24 hrs by MTT assay; format: functional, cell-based; conditions: dose 10-30 µM, time 28.0 hrs
Monoamine oxidase = target: T1, Monoamine oxidase (Mus musculus, UniProt Q8BW75+Q64133); assay: Inhibition of mouse brain mitochondrial MAO using kynuramine as substrate incubated for 15 mins measured fluorometric analysis; format: mitochondria, Mitochondria
T1 sequence (Q8BW75 whole entry): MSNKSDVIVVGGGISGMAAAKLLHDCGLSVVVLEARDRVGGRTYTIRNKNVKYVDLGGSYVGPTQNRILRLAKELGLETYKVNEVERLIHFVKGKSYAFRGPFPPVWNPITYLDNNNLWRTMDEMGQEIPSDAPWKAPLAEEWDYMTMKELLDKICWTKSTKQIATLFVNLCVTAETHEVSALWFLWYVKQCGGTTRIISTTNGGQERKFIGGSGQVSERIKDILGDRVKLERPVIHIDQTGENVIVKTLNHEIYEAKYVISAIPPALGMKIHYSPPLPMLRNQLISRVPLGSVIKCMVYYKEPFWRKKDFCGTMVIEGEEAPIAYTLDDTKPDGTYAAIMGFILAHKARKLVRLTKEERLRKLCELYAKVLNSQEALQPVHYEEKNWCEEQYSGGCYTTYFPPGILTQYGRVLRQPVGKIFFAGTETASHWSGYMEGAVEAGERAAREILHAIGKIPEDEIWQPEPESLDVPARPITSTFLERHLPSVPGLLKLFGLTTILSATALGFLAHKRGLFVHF
T1 sequence (Q64133 whole entry): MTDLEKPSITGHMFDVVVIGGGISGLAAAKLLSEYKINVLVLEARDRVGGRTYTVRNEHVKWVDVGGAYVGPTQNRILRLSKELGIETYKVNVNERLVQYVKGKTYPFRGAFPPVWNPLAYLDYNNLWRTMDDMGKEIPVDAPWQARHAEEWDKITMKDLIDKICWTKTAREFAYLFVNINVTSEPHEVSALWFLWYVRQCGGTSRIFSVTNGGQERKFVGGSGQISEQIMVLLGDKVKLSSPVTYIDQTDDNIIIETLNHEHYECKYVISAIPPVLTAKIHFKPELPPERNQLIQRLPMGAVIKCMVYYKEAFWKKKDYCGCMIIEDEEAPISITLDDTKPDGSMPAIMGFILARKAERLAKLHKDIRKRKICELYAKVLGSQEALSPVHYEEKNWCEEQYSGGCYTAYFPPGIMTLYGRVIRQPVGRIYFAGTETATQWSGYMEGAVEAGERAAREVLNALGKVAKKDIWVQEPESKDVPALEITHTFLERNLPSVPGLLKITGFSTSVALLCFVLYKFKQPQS

PC-12 [5] = assay: Cytotoxicity in rat PC-12 cells assessed as cell viability measured at 30 uM for 24 hrs by MTT assay; format: functional, cell-based
PC-12 [6] = assay: Neuroprotective activity in rat PC-12 cells assessed as fold increase in upregulation of HO-1 expression measured at 30 uM for 6 hrs by immunoblotting analysis; format: functional
PC-12 [7] = assay: Neuroprotective activity against 6-OHDA-induced cytotoxicity in rat PC-12 cells at 30 uM for 4 hrs followed by exposure to 6-OHDA measured after 24 hrs by MTT assay; format: functional, cell-based; conditions: time 28.0 hrs
[8] = target: T2, Nuclear factor erythroid 2-related factor 2 (Rattus norvegicus) (UniProt O54968); assay: Induction of Nrf2 nuclear translocation in rat PC12 cells assessed as increase in phosphorylation of AKT at 10 uM for 2 to 3 hrs by Western blotting analysis; format: cell-based; conditions: PC-12, filed as activator, time 2-3 hrs
T2 sequence (whole entry): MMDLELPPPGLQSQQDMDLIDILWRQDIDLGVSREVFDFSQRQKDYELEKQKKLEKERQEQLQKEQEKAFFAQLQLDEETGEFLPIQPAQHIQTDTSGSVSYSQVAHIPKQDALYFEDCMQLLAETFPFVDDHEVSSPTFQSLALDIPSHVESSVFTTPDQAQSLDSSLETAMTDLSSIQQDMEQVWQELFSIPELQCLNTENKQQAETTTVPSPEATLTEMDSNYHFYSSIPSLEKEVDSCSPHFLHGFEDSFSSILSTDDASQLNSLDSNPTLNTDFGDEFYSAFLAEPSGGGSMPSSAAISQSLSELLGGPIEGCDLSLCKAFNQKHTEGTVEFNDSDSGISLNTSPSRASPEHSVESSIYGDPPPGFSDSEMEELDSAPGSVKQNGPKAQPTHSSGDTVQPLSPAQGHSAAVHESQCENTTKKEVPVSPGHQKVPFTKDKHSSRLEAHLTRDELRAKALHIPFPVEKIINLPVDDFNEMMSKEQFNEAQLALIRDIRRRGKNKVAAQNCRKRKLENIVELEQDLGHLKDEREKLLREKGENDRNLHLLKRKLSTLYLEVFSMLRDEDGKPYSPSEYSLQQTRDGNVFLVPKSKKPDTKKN

PC-12 [9] = assay: Neuroprotective activity against 6-OHDA-induced cytotoxicity in rat PC-12 cells for 4 hrs followed by exposure to 6-OHDA measured after 24 hrs by MTT assay; format: functional, cell-based; conditions: dose 0.1-30 µM, time 28.0 hrs
PC-12 [10] = assay: Upregulation of HO-1 expression in si-RNA mediated Nrf2 knock down rat PC-12 cells measured by immunoblotting analysis; format: functional, cell-based
[11] = Neurotoxicity in rotenone induced at rat PC-12 cells assessed as cell viability at 30 uM pretreated for 4 hrs followed by rotenone addition measured after 24 hrs by MTT assay (reference value: 53.4 +/- 2.6%); format: toxicity, cell-based; conditions: time 28 hrs, read-out: Activity
PC-12 [12] = assay: Reversal of upregulation of HO-1 in rat PC-12 cells pretreated with U0126 for 2 hrs followed by compound addition at 10 uM for 2 to 3 hrs by Western blotting analysis; format: functional, cell-based; conditions: time 2-3 hrs
[13] = Neurotoxicity in rotenone induced at rat PC-12 cells assessed as cell viability pretreated with compound for 4 hrs followed by rotenone addition measured after 24 hrs by MTT assay; format: toxicity, cell-based
[14] = target: T2, Nuclear factor erythroid 2-related factor 2 (Rattus norvegicus); assay: Induction of Nrf2 nuclear translocation in rat PC12 cells assessed as increase in phosphorylation of Akt pretreated with LY294002 for 2 hrs followed by compound addition at 10 uM for 2 to 3 hrs by Western blotting analysis; format: cell-based; conditions: PC-12, time 2-3 hrs
[15] = target: T2, Nuclear factor erythroid 2-related factor 2 (Rattus norvegicus); assay: Induction of Nrf2 nuclear translocation in rat PC12 cells assessed as increase in phosphorylation of ERK2 pretreated with U0126 for 2 hrs followed by compound addition at 10 uM for 2 to 3 hrs by Western blotting analysis; format: cell-based; conditions: PC-12, time 2-3 hrs
PC-12 [16] = assay: Antiinflammatory activity in rotenone induced cytotoxicity in rat PC-12 cells assessed as reduction of fluorescence signal pretreated at 10 to 30 uM for 4 hrs followed by rotenone addition treated for 6 hrs measured after 1 hr of H2-DCFDA addition by spectrophotometric analysis; format: functional, cell-based; conditions: dose 10-30 µM, time 11.0 hrs
PC-12 [17] = assay: Antiinflammatory activity in 6-OHDA-induced cytotoxicity in rat PC-12 cells assessed as reduction of ROS production pretreated at 10 to 30 uM for 4 hrs followed by 6-OHDA addition treated for 6 hrs measured after 1 hr of H2-DCFDA addition by measuring fluorescence; format: functional, cell-based; conditions: dose 10-30 µM, time 11.0 hrs
PC-12 [18] = assay: Antiinflammatory activity in 6-OHDA-induced cytotoxicity in rat PC-12 cells assessed as reduction of fluorescence signal pretreated at 10 to 30 uM for 4 hrs followed by 6-OHDA addition treated for 6 hrs measured after 1 hr of H2-DCFDA addition by spectrophotometric analysis; format: functional, cell-based; conditions: dose 10-30 µM, time 11.0 hrs
[19] = target: T2, Nuclear factor erythroid 2-related factor 2 (Rattus norvegicus); assay: Induction of Nrf2 nuclear translocation in rat PC12 cells assessed as increase in phosphorylation of ERK1 pretreated with U0126 for 2 hrs followed by compound addition at 10 uM for 2 to 3 hrs by Western blotting analysis; format: cell-based; conditions: PC-12, time 2-3 hrs
[20] = target: T2, Nuclear factor erythroid 2-related factor 2 (Rattus norvegicus); assay: Induction of Nrf2 nuclear translocation in rat PC12 cells assessed as increase in phosphorylation of JNK at 10 uM for 2 to 3 hrs by Western blotting analysis; format: cell-based; conditions: PC-12, filed as activator, time 2-3 hrs
[21] = target: T2, Nuclear factor erythroid 2-related factor 2 (Rattus norvegicus); assay: Induction of Nrf2 nuclear translocation in rat PC12 cells assessed as increase in phosphorylation of ERK2 at 10 uM for 2 to 3 hrs by Western blotting analysis; format: cell-based; conditions: PC-12, filed as activator, time 2-3 hrs
[22] = target: T2, Nuclear factor erythroid 2-related factor 2 (Rattus norvegicus); assay: Inhibition of Nrf2 nuclear translocation in rat PC12 cells assessed as increase in phosphorylation of p38 MAPK pretreated with SB203580 for 2 hrs followed by compound addition at 10 uM for 2 to 3 hrs by Western blotting analysis; format: cell-based; conditions: PC-12, time 2-3 hrs
PC-12 [23] = assay: Neuroprotective activity in rat PC-12 cells assessed as upregulation of HO-1 expression measured at 10 uM after 3 to 6 hrs by immunoblotting analysis; format: functional, cell-based; conditions: time 3-6 hrs
[24] = target: T2, Nuclear factor erythroid 2-related factor 2 (Rattus norvegicus); assay: Induction of Nrf2 nuclear translocation in rat PC12 cells assessed as increase in phosphorylation of ERK1 at 10 uM for 2 to 3 hrs by Western blotting analysis; format: cell-based; conditions: PC-12, filed as activator, time 2-3 hrs
[25] = target: T2, Nuclear factor erythroid 2-related factor 2 (Rattus norvegicus); assay: Induction of Nrf2 nuclear translocation in rat PC12 cells assessed as change in phosphorylation of p38 MAPK level at 10 uM for 2 to 3 hrs by Western blotting analysis; format: cell-based; conditions: PC-12, time 2-3 hrs
PC-12 [26] = assay: Cytotoxicity in 6-OHDA induced rat PC-12 cells assessed as cell viability pretreated with ZnPP for 30 mins followed by compound addition at 10 uM for 4 hrs and measured after 24 hrs of […] addition by MTT assay; format: functional, cell-based; conditions: time 28.0 hrs
[27] = target: KEAP1/NRF2 (Rattus norvegicus) (UniProt O54968+P57790); assay: Inhibition of Nrf2-Keap1 protein-protein interaction in rat PC-12 cells by Western blotting analysis; format: cell-based
PC-12 [28] = assay: Antiinflammatory activity in rotenone induced cytotoxicity in rat PC-12 cells assessed as reduction of ROS production pretreated at 10 to 30 uM for 4 hrs followed by rotenone addition treated for 6 hrs measured after 1 hr of H2-DCFDA addition by measuring fluorescence; format: functional, cell-based; conditions: dose 10-30 µM, time 11.0 hrs
PC-12 [29] = assay: Cytotoxicity in rat PC-12 cells assessed as cell viability incubated for 24 hrs by MTT assay; format: functional, cell-based; conditions: PC-12, 24 h
PC-12 [30] = assay: Neuroprotective activity in rat PC-12 cells assessed as upregulation of HO-1 expression measured for 6 hrs by immunoblotting analysis; format: functional, cell-based; conditions: dose 1-30 µM
[31] = target: T2, Nuclear factor erythroid 2-related factor 2 (Rattus norvegicus); assay: Induction of Nrf2 nuclear translocation in rat PC12 cells assessed as increase in phosphorylation of JNK pretreated with SP600125 for 2 hrs followed by compound addition at 10 uM for 2 to 3 hrs by Western blotting analysis; format: cell-based; conditions: PC-12, time 2-3 hrs
PC-12 [32] = assay: Reversal of upregulation of HO-1 in rat PC-12 cells pretreated with LY294002 for 2 hrs followed by compound addition at 10 uM for 2 to 3 hrs by Western blotting analysis; format: functional, cell-based; conditions: time 2-3 hrs
Brain = assay: Antioxidant activity in Fe2+/L-ascorbic acid induced Sprague-Dawley rat brain homogenate assessed as inhibition of lipid peroxide production measured at 100 uM after 60 mins by microplate reader method relative to control; format: functional, tissue-based
[33] = target: T2, Nuclear factor erythroid 2-related factor 2 (Rattus norvegicus); assay: Induction of Nrf2 nuclear translocation in rat PC12 cells at 10 uM for 3 hrs by Western blotting analysis; format: cell-based; conditions: PC-12, filed as activator
PC-12 [34] = assay: Reversal of upregulation of HO-1 in rat PC-12 cells pretreated with SP600125 for 2 hrs followed by compound addition at 10 uM for 2 to 3 hrs by Western blotting analysis; format: functional, cell-based; conditions: time 2-3 hrs

SMILES: CCOc1ccc(-c2coc3cc4c(c(O)c3c2=O)C=CC(C)(C)O4)cc1
Activity (PC-12 [1]): Active
Activity (PC-12 [2]): ~80%
Activity (PC-12 [3]): inactive
Activity (PC-12 [4]): Active

IC50 (Monoamine oxidase): 25.8 µM
SMILES: CC1(C)C=Cc2c(cc3occ(-c4ccc(O)cc4)c(=O)c3c2O)O1 [ALPINUMISOFLAVONE]
Activity (PC-12 [5]): Active

Activity [8]: Active
Activity [14]: inactive
Activity [15]: inactive
Activity [19]: inactive
Activity [20]: Active
Activity [21]: Active
inhibition [22]: Active
Activity [24]: Active
Activity [25]: inactive
inhibition [27]: Active
Activity [31]: inactive
Activity [33]: Active
SMILES: COc1ccc(-c2coc3cc(O)c4c(c3c2=O)OC(C)(C)C=C4)cc1
fold change (FC) (PC-12 [6]): 2
Activity (PC-12 [7]): Active
Activity (PC-12 [9]): Dose-Dependent Effect
Activity (PC-12 [10]): inactive
viability at 30 µM [11]: ≤ 81.8%
Activity (PC-12 [12]): Active
IC50 [13]: 4.8 µM
Activity (PC-12 [16]): Active
Activity (PC-12 [5]): inactive
Activity (PC-12 [17]): Active
Activity (PC-12 [18]): Active
Activity (PC-12 [23]): Active
Activity (PC-12 [26]): Active
Activity (PC-12 [28]): Active
IC50 (PC-12 [29]): 3.9 µM
Activity (PC-12 [30]): Dose-Dependent Effect
Activity (PC-12 [32]): Active
inhibition (Brain): 28.8%
Activity (PC-12 [34]): Active
